Format in all cases: cell-based
One assay has as its system HT-29 cells. The assay is described as follows: Cell viability with GEM and CYM. Particulars: HT-29, 50 nM GEM and 25 nM CYM, 5 days. How it is done: (§1) Cell viability, colony formation, sphere formation and growth curve. To quantify viability, cells were plated into 96-well plates (6000/well) one night before treatment. Drugs were then added in indicated dose for 5 days. After fixation, cell nuclei were stained with DAPI (Invitrogen). Plates were analyzed using MetaXpress High Content Image Acquisition and Analysis System (Molecular Devices).

The next assay concerns HPAF-II cells. As to the kind of experiment: Cell viability with GEM and CYM. As to conditions: 50 nM GEM and 25 nM CYM, 5 days. The method, then: as §1
For a further assay, the system named is SW1990 cells. The assay is described as follows: Cell viability (DAPI nuclei count, high content imaging). Particulars: Homo sapiens, SW1990, 72 h, read-out: IC50, viability. How it is done: (§2) Cell viability, colony formation, sphere formation and growth curve. To quantify viability, cells were plated into 96-well plates (6000/well) one night before treatment. […] After fixation, cell nuclei were stained with DAPI (Invitrogen). Plates were analyzed using MetaXpress High Content Image Acquisition and Analysis System (Molecular Devices).

Assay [1] has as its system UGT1A10 transcript in SW1990 cells. As to the kind of experiment: qRT-PCR of UGT1A10 expression. As to conditions: SW1990, CYM treatment. How it is done:
(§3) qRT-PCR. Reverse transcription reaction was prepared with 0.5-2 μg total RNA using High Capacity cDNA Reverse Transcription Kit (Applied Biosystems). Products were diluted 10 folds with DNase&RNase free water as template. qPCR reactions were prepared with 2× LightCycler 480 SYBR Green I Master reagent (Roche) and proceeded in LightCycler 480 II (Roche) with software LightCycler 480 SW1.5.1 for signal acquisition and processing. ACTB was employed as internal reference. Primers were listed below: […]
(In general: Quantitative PCR measures a nucleic acid by following its amplification.)

Assay [2] has as its system UGT1A10 transcript in SW1990GR cells. As to the kind of experiment: qRT-PCR of UGT1A10 expression. How it is done:
as §3

Assay [3] relates to SW1990GR cells. As to the kind of experiment: Cell viability (DAPI nuclei count, high content imaging). As to conditions: 72 h, CYM 0-500 nM, 3 days, read-out: IC50, viability. How it is done:
To establish GR cell lines, cells were first cultured with 10 nM GEM till cell growth became stable. […] Once cell growth became stable in 100 nM GEM, cells were expanded in 100 nM GEM and used in assays.
as §2

Assay [4] deals with SW1990GR cells. As to the kind of experiment: Annexin V/DAPI apoptosis by flow cytometry. As to conditions: 100 nM or 200 nM CYM, one day; TRA-1-81+ and TRA-1-81− subpopulations. The method, then: Flow cytometry. TRA-1-60 PerCP-efluor710 (eBioscience, 1:50) and TRA-1-81 PE (eBioscience, 1:100) were used. Cells were blocked with 5% FBS plus mouse IgM isotype control antibody (eBioscience, 1:100) at room temperature for 15 min, then stained on ice for 30 min. Stained cells were resuspended in PBS containing 300 nM DAPI and proceeded to analysis or sorting. Cell apoptosis was analyzed with FITC-AnnexinV labeling reagent (BD). Flow cytometry analysis was carried out on BD FACS Calibur with FlowJo 9.8 software. Sorting was performed with FACSVantage SE (Becton Dickinson).

This note sets out measurements from patent US20240277744A1, “TREATMENT OF CHEMORESISTANT CANCER CELLS” (Cornell University, priority 2023, published 2024).

One may read the IC50 as the concentration that gives 50% inhibition.

`CO[C@H]1C[C@H](O[C@H]2CC[C@]3(C=O)[C@H]4CC[C@]5(C)[C@@H](C6=CC(=O)OC6)CC[C@]5(O)[C@@H]4CC[C@]3(O)C2)O[C@H](C)[C@H]1O` [CYM, Cymarin]: the “survival of GEM-resistant cells” value with HT-29 cells and in the assay with HPAF-II cells was “significantly decreased the survival” each time. Also, the figures for the concentration for half-maximal inhibition (IC50) in the assay on SW1990 cells and in the assay on SW1990GR cells [3] were 0.0338 ± 0.0026 µM and 0.0408 ± 0.0031 µM, respectively. The UGT1A10 transcript levels entry in assay [1] and in assay [2] (CYM treatment) was “decreased” throughout. Moreover, the “expression of UGT1A10 in TRA-1-81+ and TRA-1-81− subpopulations” value in assay [2] (25 nM CYM) was “significantly inhibits”. For the same compound, the “percentage of Annexin V+/DAPI− (early) and Annexin V+/DAPI+ (late) apoptotic cells” value in the assay on SW1990GR cells [4] is reported as “increased”.
